According to ChEMBL document CHEMBL4507296 (2021):

Assays:
[1] = molecular target: High affinity choline transporter 1 (Homo sapiens) (UniProt Q9GZV3); assay: Choline transporter 1 (human) CEREP ligand profiling; details: Compound concentration 10.0 uM
[2] = molecular target: Kappa-type opioid receptor (Rattus norvegicus) (UniProt P34975); assay: k-Opioid (rat) CEREP ligand profiling; details: Compound concentration 10.0 uM
[3] = molecular target: Tyrosine-protein kinase ABL1 (Homo sapiens) (UniProt P00519); details: Compound concentration 1000.0 nM
[4] = molecular target: RAC-gamma serine/threonine-protein kinase (Homo sapiens) (UniProt Q9Y243); details: Compound concentration 1000.0 nM
[5] = molecular target: Ankyrin repeat and protein kinase domain-containing protein 1 (Homo sapiens) (UniProt Q8NFD2); details: Compound concentration 1000.0 nM
[6] = molecular target: Tyrosine-protein kinase Blk (Homo sapiens) (UniProt P51451); details: Compound concentration 1000.0 nM
[7] = molecular target: Protein-tyrosine kinase 6 (Homo sapiens) (UniProt Q13882); details: Compound concentration 1000.0 nM
[8] = molecular target: Dual specificity protein kinase CLK2 (Homo sapiens) (UniProt P49760); details: Compound concentration 1000.0 nM
[9] = molecular target: Dual specificity protein kinase CLK4 (Homo sapiens) (UniProt Q9HAZ1); details: Compound concentration 1000.0 nM
[10] = molecular target: Casein kinase I isoform gamma-1 (Homo sapiens) (UniProt Q9HCP0); details: Compound concentration 1000.0 nM
[11] = system: Epidermal growth factor receptor (Homo sapiens), P00533 [UNDEFINED MUTATION]; details: Compound concentration 1000.0 nM
[12] = molecular target: Ephrin type-A receptor 8 (Homo sapiens) (UniProt P29322); details: Compound concentration 1000.0 nM
[13] = molecular target: Fibroblast growth factor receptor 1 (Homo sapiens) (UniProt P11362); details: Compound concentration 1000.0 nM
[14] = molecular target: Fibroblast growth factor receptor 3 (Homo sapiens) (UniProt P22607); details: Compound concentration 1000.0 nM
[15] = molecular target: Tyrosine-protein kinase Fgr (Homo sapiens) (UniProt P09769); details: Compound concentration 1000.0 nM
[16] = system: Receptor-type tyrosine-protein kinase FLT3 (Homo sapiens), P36888 [UNDEFINED MUTATION]; details: Compound concentration 1000.0 nM
[17] = molecular target: G protein-coupled receptor kinase 3 (Homo sapiens) (UniProt P35626); details: Compound concentration 1000.0 nM
[18] = molecular target: Rhodopsin kinase GRK7 (Homo sapiens) (UniProt Q8WTQ7); details: Compound concentration 1000.0 nM
[19] = molecular target: Glycogen synthase kinase-3 beta (Homo sapiens) (UniProt P49841); details: Compound concentration 1000.0 nM
[20] = molecular target: Tyrosine-protein kinase HCK (Homo sapiens) (UniProt P08631); details: Compound concentration 1000.0 nM
[21] = molecular target: Hormonally up-regulated neu tumor-associated kinase (Homo sapiens) (UniProt P57058); details: Compound concentration 1000.0 nM
[22] = molecular target: Insulin-like growth factor 1 receptor (Homo sapiens) (UniProt P08069); details: Compound concentration 1000.0 nM
[23] = molecular target: Serine/threonine-protein kinase 10 (Homo sapiens) (UniProt O94804); details: Compound concentration 1000.0 nM
[24] = molecular target: Mitogen-activated protein kinase kinase kinase 4 (Homo sapiens) (UniProt Q9Y6R4); details: Compound concentration 1000.0 nM
[25] = molecular target: MAP/microtubule affinity-regulating kinase 3 (Homo sapiens) (UniProt P27448); details: Compound concentration 1000.0 nM
[26] = molecular target: Tyrosine-protein kinase Mer (Homo sapiens) (UniProt Q12866); details: Compound concentration 1000.0 nM
[27] = molecular target: Mitogen-activated protein kinase kinase kinase 9 (Homo sapiens) (UniProt P80192); details: Compound concentration 1000.0 nM
[28] = molecular target: Serine/threonine-protein kinase 38 (Homo sapiens) (UniProt Q15208); details: Compound concentration 1000.0 nM
[29] = molecular target: Serine/threonine-protein kinase Nek10 (Homo sapiens) (UniProt Q6ZWH5); details: Compound concentration 1000.0 nM
[30] = molecular target: Cyclin-dependent kinase 17 (Homo sapiens) (UniProt Q00537); details: Compound concentration 1000.0 nM
[31] = molecular target: cAMP-dependent protein kinase catalytic subunit alpha (Homo sapiens) (UniProt P17612); details: Compound concentration 1000.0 nM
[32] = molecular target: Membrane-associated tyrosine- and threonine-specific cdc2-inhibitory kinase (Homo sapiens) (UniProt Q99640); details: Compound concentration 1000.0 nM
[33] = molecular target: Serine/threonine-protein kinase N1 (Homo sapiens) (UniProt Q16512); details: Compound concentration 1000.0 nM
[34] = molecular target: Serine/threonine-protein kinase PRP4 homolog (Homo sapiens) (UniProt Q13523); details: Compound concentration 1000.0 nM
[35] = molecular target: Proto-oncogene tyrosine-protein kinase receptor Ret (Homo sapiens) (UniProt P07949); details: Compound concentration 1000.0 nM
[36] = molecular target: Rho-associated protein kinase 1 (Homo sapiens) (UniProt Q13464); details: Compound concentration 1000.0 nM
[37] = molecular target: Ribosomal protein S6 kinase alpha-1 (Homo sapiens) (UniProt Q15418); details: Compound concentration 1000.0 nM
[38] = molecular target: Ribosomal protein S6 kinase alpha-2 (Homo sapiens) (UniProt Q15349); details: Compound concentration 1000.0 nM
[39] = molecular target: Serine/threonine-protein kinase TAO1 (Homo sapiens) (UniProt Q7L7X3); details: Compound concentration 1000.0 nM
[40] = molecular target: Serine/threonine-protein kinase tousled-like 2 (Homo sapiens) (UniProt Q86UE8); details: Compound concentration 1000.0 nM
[41] = molecular target: Activated CDC42 kinase 1 (Homo sapiens) (UniProt Q07912); details: Compound concentration 1000.0 nM
[42] = molecular target: Non-receptor tyrosine-protein kinase TYK2 (Homo sapiens) (UniProt P29597); details: Compound concentration 1000.0 nM
[43] = molecular target: Tyrosine-protein kinase ZAP-70 (Homo sapiens) (UniProt P43403); details: Compound concentration 1000.0 nM
[44] = molecular target: Delta-type opioid receptor (Homo sapiens) (UniProt P41143); details: Compound concentration 10.0 uM
[45] = molecular target: Alpha-1D adrenergic receptor (Homo sapiens) (UniProt P25100); details: Compound concentration 10.0 uM
Alpha-1D adrenergic receptor (Homo sapiens), sequence (P25100 whole entry): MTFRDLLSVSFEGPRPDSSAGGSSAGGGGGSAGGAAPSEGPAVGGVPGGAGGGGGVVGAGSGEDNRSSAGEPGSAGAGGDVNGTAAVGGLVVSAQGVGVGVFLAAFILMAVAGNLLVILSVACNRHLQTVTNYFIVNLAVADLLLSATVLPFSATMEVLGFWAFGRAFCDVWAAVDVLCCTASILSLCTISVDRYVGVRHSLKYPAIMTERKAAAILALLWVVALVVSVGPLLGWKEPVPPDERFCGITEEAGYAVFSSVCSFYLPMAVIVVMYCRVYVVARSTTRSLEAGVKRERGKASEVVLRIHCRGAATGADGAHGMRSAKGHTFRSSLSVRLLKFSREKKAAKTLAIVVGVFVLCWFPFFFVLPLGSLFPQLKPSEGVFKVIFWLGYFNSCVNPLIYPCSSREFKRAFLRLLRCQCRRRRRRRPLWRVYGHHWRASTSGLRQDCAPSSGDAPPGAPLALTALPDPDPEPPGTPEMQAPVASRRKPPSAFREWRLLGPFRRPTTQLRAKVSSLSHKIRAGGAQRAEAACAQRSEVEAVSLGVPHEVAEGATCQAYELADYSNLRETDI

Membrane-associated tyrosine- and threonine-specific cdc2-inhibitory kinase (Homo sapiens), sequence (Q99640 whole entry): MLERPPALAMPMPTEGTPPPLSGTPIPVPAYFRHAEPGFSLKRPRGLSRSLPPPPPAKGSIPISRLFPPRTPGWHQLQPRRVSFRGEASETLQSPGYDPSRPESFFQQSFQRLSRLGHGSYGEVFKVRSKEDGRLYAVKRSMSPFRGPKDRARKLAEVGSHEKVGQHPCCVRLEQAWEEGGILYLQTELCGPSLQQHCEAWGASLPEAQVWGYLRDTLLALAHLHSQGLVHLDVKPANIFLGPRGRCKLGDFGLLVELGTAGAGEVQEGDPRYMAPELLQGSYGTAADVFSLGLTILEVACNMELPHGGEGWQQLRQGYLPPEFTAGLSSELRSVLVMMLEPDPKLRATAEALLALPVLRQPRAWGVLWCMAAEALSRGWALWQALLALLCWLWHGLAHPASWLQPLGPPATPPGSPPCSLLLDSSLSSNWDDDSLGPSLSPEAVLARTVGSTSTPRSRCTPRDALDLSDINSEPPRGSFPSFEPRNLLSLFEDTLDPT
Casein kinase I isoform gamma-1 (Homo sapiens), sequence (Q9HCP0 whole entry, looked up, canonical isoform): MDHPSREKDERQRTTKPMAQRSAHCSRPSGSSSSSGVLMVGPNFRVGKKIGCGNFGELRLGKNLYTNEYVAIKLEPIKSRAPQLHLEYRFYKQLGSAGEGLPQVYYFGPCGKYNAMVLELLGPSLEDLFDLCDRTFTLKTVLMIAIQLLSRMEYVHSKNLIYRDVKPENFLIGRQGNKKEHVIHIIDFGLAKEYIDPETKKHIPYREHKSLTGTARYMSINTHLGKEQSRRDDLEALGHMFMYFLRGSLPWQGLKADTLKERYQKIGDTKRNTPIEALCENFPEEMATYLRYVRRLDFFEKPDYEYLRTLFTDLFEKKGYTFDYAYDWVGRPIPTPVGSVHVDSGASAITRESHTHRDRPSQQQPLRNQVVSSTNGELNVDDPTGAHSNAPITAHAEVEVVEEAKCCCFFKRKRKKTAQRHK
Rho-associated protein kinase 1 (Homo sapiens), sequence (Q13464 2-1354 limits assumed): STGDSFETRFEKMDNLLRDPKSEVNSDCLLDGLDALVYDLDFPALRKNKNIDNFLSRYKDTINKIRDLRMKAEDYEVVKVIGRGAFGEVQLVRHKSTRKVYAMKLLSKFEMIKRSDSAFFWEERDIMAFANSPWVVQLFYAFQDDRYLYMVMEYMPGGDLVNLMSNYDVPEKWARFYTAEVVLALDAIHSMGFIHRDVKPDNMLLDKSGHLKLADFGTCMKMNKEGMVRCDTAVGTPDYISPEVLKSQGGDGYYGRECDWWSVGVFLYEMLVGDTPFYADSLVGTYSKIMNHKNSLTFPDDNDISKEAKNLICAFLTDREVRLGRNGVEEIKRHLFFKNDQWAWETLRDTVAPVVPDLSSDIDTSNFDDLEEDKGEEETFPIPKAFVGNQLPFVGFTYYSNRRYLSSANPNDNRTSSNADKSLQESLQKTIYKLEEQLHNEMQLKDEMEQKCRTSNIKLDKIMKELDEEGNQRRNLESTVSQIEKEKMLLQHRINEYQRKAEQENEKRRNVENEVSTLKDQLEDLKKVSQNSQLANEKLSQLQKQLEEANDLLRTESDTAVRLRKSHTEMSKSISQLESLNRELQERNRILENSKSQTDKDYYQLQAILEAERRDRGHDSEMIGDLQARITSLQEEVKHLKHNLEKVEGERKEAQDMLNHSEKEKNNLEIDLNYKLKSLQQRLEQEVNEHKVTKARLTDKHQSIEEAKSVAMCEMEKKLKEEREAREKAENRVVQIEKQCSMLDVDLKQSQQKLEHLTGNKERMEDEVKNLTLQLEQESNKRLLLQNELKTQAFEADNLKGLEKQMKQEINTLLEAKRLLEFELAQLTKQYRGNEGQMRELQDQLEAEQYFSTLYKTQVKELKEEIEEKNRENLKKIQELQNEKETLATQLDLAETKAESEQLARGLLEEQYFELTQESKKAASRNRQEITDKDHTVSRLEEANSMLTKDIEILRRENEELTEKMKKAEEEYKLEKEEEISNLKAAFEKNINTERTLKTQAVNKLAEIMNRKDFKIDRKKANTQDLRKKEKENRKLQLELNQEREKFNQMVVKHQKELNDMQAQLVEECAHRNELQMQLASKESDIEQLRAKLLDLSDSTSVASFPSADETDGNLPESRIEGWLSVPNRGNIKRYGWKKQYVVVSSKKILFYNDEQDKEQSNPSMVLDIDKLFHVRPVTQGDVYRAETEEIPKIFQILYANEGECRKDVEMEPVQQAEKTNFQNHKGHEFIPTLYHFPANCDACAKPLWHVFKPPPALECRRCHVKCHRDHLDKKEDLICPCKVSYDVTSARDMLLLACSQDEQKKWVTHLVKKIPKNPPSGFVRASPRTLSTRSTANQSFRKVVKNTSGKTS
Tyrosine-protein kinase Blk (Homo sapiens), sequence (P51451 2-505 limits assumed): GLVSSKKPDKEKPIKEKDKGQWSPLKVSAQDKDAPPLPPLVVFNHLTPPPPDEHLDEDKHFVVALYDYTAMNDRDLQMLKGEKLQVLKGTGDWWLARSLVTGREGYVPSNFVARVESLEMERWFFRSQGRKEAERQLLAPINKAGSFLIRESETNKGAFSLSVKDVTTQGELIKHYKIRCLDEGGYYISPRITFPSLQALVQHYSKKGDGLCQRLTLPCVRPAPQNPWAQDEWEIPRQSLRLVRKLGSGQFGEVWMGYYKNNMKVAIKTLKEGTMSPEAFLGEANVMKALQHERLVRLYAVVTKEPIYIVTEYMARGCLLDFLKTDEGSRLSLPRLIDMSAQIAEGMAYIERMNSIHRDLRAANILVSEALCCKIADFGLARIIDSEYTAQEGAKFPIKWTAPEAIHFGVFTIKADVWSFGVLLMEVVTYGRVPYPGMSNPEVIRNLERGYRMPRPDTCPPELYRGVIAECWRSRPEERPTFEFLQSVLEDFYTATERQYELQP
Activated CDC42 kinase 1 (Homo sapiens), sequence (Q07912 whole entry, looked up): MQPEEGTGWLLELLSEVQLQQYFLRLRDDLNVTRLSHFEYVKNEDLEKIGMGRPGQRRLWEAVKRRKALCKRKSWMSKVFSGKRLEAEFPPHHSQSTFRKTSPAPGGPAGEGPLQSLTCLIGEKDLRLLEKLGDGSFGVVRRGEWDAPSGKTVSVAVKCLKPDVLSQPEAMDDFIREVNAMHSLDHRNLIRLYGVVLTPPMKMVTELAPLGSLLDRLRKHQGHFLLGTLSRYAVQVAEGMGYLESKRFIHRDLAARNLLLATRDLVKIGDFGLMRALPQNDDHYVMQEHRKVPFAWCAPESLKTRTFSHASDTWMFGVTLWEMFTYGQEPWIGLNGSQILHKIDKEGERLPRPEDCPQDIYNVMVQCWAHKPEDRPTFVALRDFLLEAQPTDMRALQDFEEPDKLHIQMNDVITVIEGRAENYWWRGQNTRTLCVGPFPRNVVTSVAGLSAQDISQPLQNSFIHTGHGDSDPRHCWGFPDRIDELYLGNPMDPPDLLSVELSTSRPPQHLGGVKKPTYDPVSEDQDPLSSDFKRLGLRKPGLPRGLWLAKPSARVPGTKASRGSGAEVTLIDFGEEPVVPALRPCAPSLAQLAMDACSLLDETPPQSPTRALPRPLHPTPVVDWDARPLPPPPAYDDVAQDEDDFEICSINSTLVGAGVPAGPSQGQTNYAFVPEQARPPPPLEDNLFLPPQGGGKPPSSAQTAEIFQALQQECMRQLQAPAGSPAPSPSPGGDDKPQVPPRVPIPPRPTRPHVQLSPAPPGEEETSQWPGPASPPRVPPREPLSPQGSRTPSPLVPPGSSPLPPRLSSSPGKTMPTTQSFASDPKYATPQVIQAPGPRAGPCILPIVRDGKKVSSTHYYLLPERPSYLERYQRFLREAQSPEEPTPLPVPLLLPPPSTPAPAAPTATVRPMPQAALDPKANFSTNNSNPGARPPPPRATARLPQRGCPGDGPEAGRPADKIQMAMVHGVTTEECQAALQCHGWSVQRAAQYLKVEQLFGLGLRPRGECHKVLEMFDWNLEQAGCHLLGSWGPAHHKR
Kappa-type opioid receptor (Rattus norvegicus), sequence (P34975 whole entry): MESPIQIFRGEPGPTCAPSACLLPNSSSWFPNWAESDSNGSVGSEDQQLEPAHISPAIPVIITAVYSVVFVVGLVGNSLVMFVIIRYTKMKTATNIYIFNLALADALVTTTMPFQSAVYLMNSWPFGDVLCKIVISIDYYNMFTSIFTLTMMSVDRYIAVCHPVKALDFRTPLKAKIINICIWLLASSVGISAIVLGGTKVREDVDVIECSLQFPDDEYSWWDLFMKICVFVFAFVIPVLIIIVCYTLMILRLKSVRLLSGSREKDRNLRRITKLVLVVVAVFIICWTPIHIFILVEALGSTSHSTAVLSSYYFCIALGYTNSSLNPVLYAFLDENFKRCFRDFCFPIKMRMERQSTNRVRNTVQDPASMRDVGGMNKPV

## C[C@H](c1ccc(F)cc1)N(Cc1cccc(C(=O)O)c1)C(=O)c1cnc2ccccc2c1 [PF-05105679]
[1]
  inhibition: 22%
[2]
  inhibition: 20%
[3]
  residual activity: 100%
[4]
  residual activity: 100%
[5]
  residual activity: 81%
[6]
  residual activity: 88%
[7]
  residual activity: 83%
[8]
  residual activity: 98%
[9]
  residual activity: 66%
[10]
  residual activity: 91%
[11]
  residual activity: 100%
[12]
  residual activity: 76%
[13]
  residual activity: 100%
[14]
  residual activity: 82%
[15]
  residual activity: 100%
[16]
  residual activity: 99%
[17]
  residual activity: 40%
[18]
  residual activity: 100%
[19]
  residual activity: 100%
[20]
  residual activity: 88%
[21]
  residual activity: 100%
[22]
  residual activity: 100%
[23]
  residual activity: 89%
[24]
  residual activity: 100%
[25]
  residual activity: 100%
[26]
  residual activity: 95%
[27]
  residual activity: 100%
[28]
  residual activity: 100%
[29]
  residual activity: 96%
[30]
  residual activity: 84%
[31]
  residual activity: 100%
[32]
  residual activity: 68%
[33]
  residual activity: 100%
[34]
  residual activity: 100%
[35]
  residual activity: 100%
[36]
  residual activity: 100%
[37]
  residual activity: 100%
[38]
  residual activity: 100%
[39]
  residual activity: 100%
[40]
  residual activity: 97%
[41]
  residual activity: 100%
[42]
  residual activity: 92%
[43]
  residual activity: 96%
[44]
  inhibition: -1.72%
[45]
  inhibition: 27.3%
